For the test, the target named is T1, Adenosine receptor A1 (Rattus norvegicus, UniProt P25099).
T1 sequence (P25099 whole entry): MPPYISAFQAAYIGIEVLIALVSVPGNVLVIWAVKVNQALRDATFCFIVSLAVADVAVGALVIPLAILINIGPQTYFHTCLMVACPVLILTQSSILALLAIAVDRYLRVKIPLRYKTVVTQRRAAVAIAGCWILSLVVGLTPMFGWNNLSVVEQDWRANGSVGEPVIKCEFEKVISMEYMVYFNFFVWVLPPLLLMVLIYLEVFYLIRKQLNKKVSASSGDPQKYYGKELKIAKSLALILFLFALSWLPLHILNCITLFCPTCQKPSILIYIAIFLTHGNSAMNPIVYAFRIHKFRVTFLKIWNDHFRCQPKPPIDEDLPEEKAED
The test is described as follows: Inhibition of [3H]R-PIA binding to Adenosine A1 receptor from rat brain membrane.

A word on the Ki: it is the dissociation constant of the complex between target and ligand, obtained from inhibition or displacement. Lower therefore signals tighter binding. Take `CCNC(O)[C@H]1O[C@@H](n2cnc3c(NC(=O)Nc4ccc(S(=O)(=O)Nc5cc(C)on5)cc4)ncnc32)[C@H](O)[C@@H]1O` (some centres undefined): the Ki was determined as 0.901 µM.
As to `CCNC(=O)[C@@H]1OC(n2cnc3c(NC(=O)Nc4ccc(S(=O)(=O)Nc5ncccn5)cc4)ncnc32)[C@@H](O)[C@H]1O` (some centres undefined), affinity was put at a Ki of 0.725 µM.
With `CCNC(=O)[C@H]1OC(n2cnc3c(NC(=O)c4ccc(Cl)cc4Cl)ncnc32)[C@H](O)[C@@H]1O` (some centres undefined) the figure was 0.016 µM.
Regarding `CCNC(=O)[C@H]1OC(n2cnc3c(NC(=O)Nc4ccc(S(=O)(=O)Nc5ccccn5)cc4)ncnc32)[C@H](O)[C@@H]1O` (some centres undefined), the Ki was found to be 0.292 µM.
